Reference: US12037324B2, “Biarylmethyl heterocycles” (Université de Montréal, priority 2016, dated 2024)

What was measured:
[1] = target: T1, AGTR1 (Homo sapiens, UniProt P30556); test: DiscoveRx IP1 accumulation assay (HTRF), agonist mode, Pathunter CHO-K1 AGTR1 β-arrestin cell line; type: cell-based; settings: for EC50: read-out: IP-1 EC50
T1 construct: host or cells: Pathunter CHO-K1 AGTR1 β-arrestin cell line (CHO-K1)
T1 sequence (P30556 1-359): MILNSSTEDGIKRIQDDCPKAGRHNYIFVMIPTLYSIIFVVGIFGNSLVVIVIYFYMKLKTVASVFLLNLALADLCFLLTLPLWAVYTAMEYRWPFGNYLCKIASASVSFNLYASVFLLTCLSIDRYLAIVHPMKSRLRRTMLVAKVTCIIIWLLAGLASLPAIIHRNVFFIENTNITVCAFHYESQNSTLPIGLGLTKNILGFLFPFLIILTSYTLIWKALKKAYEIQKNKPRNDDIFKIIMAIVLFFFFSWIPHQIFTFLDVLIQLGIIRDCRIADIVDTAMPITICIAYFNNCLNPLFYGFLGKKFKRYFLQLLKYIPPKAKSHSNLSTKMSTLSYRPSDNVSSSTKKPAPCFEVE
Outline: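 Agonist mode in CHO-K1 AGTR1 β-arrestin cells plated 14-16 h before; compounds at varying concentrations for 90 min at 37° C, IP1 accumulation read by HTRF (D2-conjugate and anti-IP1 cryptate, 20 min room temperature). EC50 from 4-parameter logistic fit; activity given as percentage of maximal AII effect.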

[2] = target: T2, hAT1R (Homo sapiens, UniProt P30556); test: cell-based
T2 sequence (P30556 1-359): T1 sequence (P30556 1-359)

[3] = target: T1, AGTR1; test: DiscoveRx β-arrestin2 recruitment assay (enzyme complementation, Pathunter CHO-K1 AGTR1 β-arrestin cell line); type: cell-based; settings: DiscoveRx β-arrestin2 recruitment; for DiscoveRx β-arrestin2 Ymax (%): maximal response
Outline: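 Chemiluminescent enzyme-complementation read-out of β-arrestin2 recruitment to AGTR1 in engineered CHO-K1 cells after 90 min compound exposure at 37° C. Values are 4-parameter logistic EC50s in agonist mode, IC50s in antagonist mode, with efficacy relative to the maximal All response.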

[4] = target: T2, hAT1R; test: BRET β-arrestin2 biosensor assay, higher receptor expression (hAT1R 5 ng/well), HEK293 cells; type: cell-based; settings: for EC50: High AT1R Expression
[5] = target: T2, hAT1R; test: cell-based; settings: agonist mode; for EC50: read-out: BRET P63 EC50
[6] = section of the 42nd table ending at r951, example numbering restarts after the DiscoveRx section, read-out: β-arrestin2 EC50
[7] = Low AT1R Expression, read-out: BRET β-Arrestin2 Low AT1R Expression EC50

Compound | IP-1 Ymax (%) [1] [%] | EC50 [1] [nM] | EC50 [2, 6] [nM] | EC50 [3] [nM] | DiscoveRx β-arrestin2 Ymax (%) [3] [%] | BRET β-Arrestin2 High AT1R Expression Ymax (%) [4] [%] | EC50 [4] [nM] | BRET P63 Ymax [5] [%] | EC50 [5] [nM] | EC50 [2, 7] [nM] | BRET β-Arrestin2 Low AT1R Expression Ymax (%) ([2]; Low AT1R Expression)
CCc1nc2c(C)cc(C)nc2n1Cc1ccc(-c2cc(-c3ccc(CO)cc3)ccc2C(=O)O)cc1 [Example 183] | 14.1 | 200 | 138 | 66.2 | 36.2 | 90.0 | 62.9 | 13.2 | 179 | – | –
CCc1nc2c(C)cc(C)nc2n1Cc1ccc(-c2cc(-n3cc(C4CCCC4)nn3)ccc2-c2nnn[nH]2)cc1 [Example 230] | 12.7 | 340 | 140 | 63.1 | 16.7 | 53.5 | 61.2 | – | > 100000 | – | –
CCc1nc2c(C)cc(C)nc2n1Cc1ccc(-c2cc(-c3cccc(C)n3)ccc2-c2nn[nH]n2)cc1 [Example 59] | 10.4 | 21.9 | – | 12.5 | 29.5 | 52.1 | 14 | – | > 10000 | > 10000 | –
CCc1nc2c(C)cc(C)nc2n1Cc1ccc(-c2cc(-c3cc(C)cc(C)c3)ccc2-c2nn[nH]n2)cc1 [Example 9] | 7.1 | 8.7 | – | 3.7 | 66.7 | 87.8 | 5.6 | 14.2 | 19.5 | 9.4 | 80.3
CCc1nc2c(C)cc(C)nc2n1Cc1ccc(-c2cc(Oc3cncnc3)ccc2-c2nnn[nH]2)cc1 [Example 258] | 15.1 | 42.8 | 81.9 | 23.1 | 35.2 | 75.7 | 41.5 | 17.5 | 140 | – | –
CCCC1=NC2(CCCC2)C(=O)N1Cc1ccc(-c2cc(-c3ccccc3)ccc2-c2nn[nH]n2)cc1 [Example 114, 3-((6′-(2H-tetrazol-5-yl)-[1,1′:3′,1″-terphenyl]-4-yl)methyl)-2-propyl-1,3-diazaspiro[4.4]non-1-en-4-one] | 8.3 | 122 | – | 49.9 | 46.5 | 89.2 | 11.9 | 11.8 | 66.5 | 36.6 | 57.2
CCc1nc2c(C)cc(C)nc2n1Cc1ccc(-c2cc(-c3ccccc3O)ccc2-c2nn[nH]n2)cc1 [Example 10] | 14.4 | 5 | – | 1.4 | 60.3 | 86.9 | 1.4 | 26.1 | 2.8 | 2.4 | 86.8
CCc1nc2c(C)cc(C)nc2n1Cc1ccc(-c2cc(-c3ccccc3)ccc2-c2nnn[nH]2)cn1 [Example 179] | 12.2 | 81.7 | 61.4 | 40.7 | 58.3 | 90.6 | 20.7 | 11.6 | 52.3 | – | –
CCc1nc2c(C)cc(C)nc2n1Cc1ccc(-c2cc(OC3CCCCC3)ccc2-c2nnn[nH]2)cc1 [Example 209, 3-((5′-(Cyclohexyloxy)-2′-(1H-tetrazol-5-yl)-[1,1′-biphenyl]-4-yl)methyl)-2-ethyl-5,7-dimethyl-3H-imidazo[4,5-b]pyridine] | 25.5 | 110 | 50 | 45.9 | 49.6 | 90.6 | 7.2 | 32.6 | 37.6 | – | –
CCc1nc2c(C)cc(C)nc2n1Cc1ccc(-c2cc(-n3cc(C4CC4)nn3)ccc2-c2nnn[nH]2)cc1 [Example 225, 3-((5′-(4-Cyclopropyl-1H-1,2,3-triazol-1-yl)-2′-(5H-tetrazol-5-yl)-[1,1′-biphenyl]-4-yl)methyl)-2-ethyl-5,7-dimethyl-3H-imidazo[4,5-b]pyridine] | 7.0 | 25.2 | 187 | 29 | 35.4 | 82.1 | 10.9 | 7.1 | 29.5 | – | –
CCc1nc2c(C)cc(C)nc2n1Cc1ccc(-c2cc(Oc3ccccc3F)ccc2-c2nnn[nH]2)cc1 [Example 205, 2-Ethyl-3-((5′-(2-fluorophenoxy)-2′-(1H-tetrazol-5-yl)-[1,1′-biphenyl]-4-yl)methyl)-5,7-dimethyl-3H-imidazo[4,5-b]pyridine] | 16.7 | 70.2 | 21.3 | 31.8 | 42.2 | 92.1 | 4.8 | 20.2 | 18.4 | – | –
CCc1nc2c(C)cc(C)nc2n1Cc1ccc(-c2cc(-c3ccccc3)ccc2-c2noc(=O)[nH]2)cc1 [Example 32, 3-(4″-((2-ethyl-5,7-dimethyl-3H-imidazo[4,5-b]pyridin-3-yl)methyl)-[1,1′:3′,1″-terphenyl]-4′-yl)-1,2,4-oxadiazol-5(4H)-one] | 10.8 | 38.4 | – | 34.3 | 86.1 | 91.6 | 5.1 | 25.2 | 21.1 | 12.5 | 80.9
CCCCC1=NC2(CCCC2)C(=O)N1Cc1ccc(-c2cc(-c3cc(C)ccn3)ccc2-c2nn[nH]n2)cc1 [Example 139] | 16.8 | 19.2 | – | 10.5 | 50.1 | 95.0 | 11.2 | 20.6 | 34.4 | 41.4 | 83.5
CCc1nc2c(C)cc(C)nc2n1Cc1ccc(-c2cc(-c3ccccc3)ccc2-c2nn[nH]n2)cc1 [Example 4] | 9.8 | 19 | – | 7.5 | 48.9 | 95.4 | 3.8 | 13.0 | 4.8 | 8.2 | 69.3
CCc1nc2c(C)cc(C)nc2n1Cc1ccc(-c2cc(-c3cncc(C)c3)ccc2-c2nn[nH]n2)cc1 [Example 60] | 5.3 | 83.1 | – | 53.7 | 33.5 | 85.8 | 19.6 | – | > 10000 | 93.3 | 39.4
CCc1nc2c(C)cc(C)nc2n1Cc1ccc(-c2cc(-c3ccccc3)ccc2-c2nsc(=O)[nH]2)cc1 [Example 245] | 12.7 | 89.4 | 24.1 | 115 | 75.5 | 88.8 | 4.9 | 23.3 | 27.2 | – | –
CCc1nc2c(C)cc(C)nc2n1Cc1ccc(-c2cc(-c3cccc(C)c3)ccc2-c2nnn[nH]2)nc1 [Example 175, 2-ethyl-5,7-dimethyl-3-((6-(3′-methyl-4-(1H-tetrazol-5-yl)biphenyl-3-yl)pyridin-3-yl)methyl)-3H-imidazo[4,5-b]pyridine] | 24.1 | 12.8 | 10.7 | 6 | 37.0 | 93.0 | 5.2 | 12.4 | 21.1 | – | –
CCc1nc2c(C)cc(C)nc2n1Cc1ccc(-c2cc(-n3cc(C(C)C)nn3)ccc2-c2nnn[nH]2)cc1 [Example 227] | 9.8 | 268 | 31.4 | 32 | 51.6 | 87.8 | 7.4 | 19.9 | 30.4 | – | –
